Experiments:
Integrin alpha-4/beta-7 = target: T1, Integrin alpha-4/beta-7 (Homo sapiens, UniProt P13612+P26010); assay: Inhibition of human integrin alpha-4-beta-7-MAdCAM interaction in human RPMI 8866 cells by whole-cell adhesion assay; format: cell-based
T1 sequence (P13612 whole entry): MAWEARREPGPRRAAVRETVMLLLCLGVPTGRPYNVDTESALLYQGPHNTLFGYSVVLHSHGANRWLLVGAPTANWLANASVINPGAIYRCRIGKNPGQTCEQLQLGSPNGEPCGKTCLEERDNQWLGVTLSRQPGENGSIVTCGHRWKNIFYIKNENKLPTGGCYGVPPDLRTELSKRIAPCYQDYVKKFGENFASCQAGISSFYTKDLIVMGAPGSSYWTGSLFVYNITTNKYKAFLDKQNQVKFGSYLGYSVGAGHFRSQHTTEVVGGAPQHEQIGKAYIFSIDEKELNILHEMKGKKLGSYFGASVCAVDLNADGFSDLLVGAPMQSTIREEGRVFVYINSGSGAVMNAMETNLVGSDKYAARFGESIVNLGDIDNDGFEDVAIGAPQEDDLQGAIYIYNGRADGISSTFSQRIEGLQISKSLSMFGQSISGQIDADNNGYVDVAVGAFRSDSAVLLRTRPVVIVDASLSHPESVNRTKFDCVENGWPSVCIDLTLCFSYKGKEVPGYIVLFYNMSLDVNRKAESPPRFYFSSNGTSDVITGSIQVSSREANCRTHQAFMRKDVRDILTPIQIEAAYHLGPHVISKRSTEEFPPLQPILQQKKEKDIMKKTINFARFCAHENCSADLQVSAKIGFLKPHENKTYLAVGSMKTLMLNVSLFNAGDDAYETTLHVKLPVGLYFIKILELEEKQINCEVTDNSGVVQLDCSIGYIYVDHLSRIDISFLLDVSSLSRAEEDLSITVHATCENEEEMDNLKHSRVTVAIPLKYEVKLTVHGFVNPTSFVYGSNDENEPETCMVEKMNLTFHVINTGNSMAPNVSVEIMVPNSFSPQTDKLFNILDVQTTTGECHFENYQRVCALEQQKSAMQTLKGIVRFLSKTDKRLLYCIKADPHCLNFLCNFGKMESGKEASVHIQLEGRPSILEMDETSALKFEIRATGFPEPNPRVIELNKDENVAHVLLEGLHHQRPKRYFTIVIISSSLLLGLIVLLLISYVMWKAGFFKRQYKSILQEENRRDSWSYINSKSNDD
T1 sequence (P26010 whole entry): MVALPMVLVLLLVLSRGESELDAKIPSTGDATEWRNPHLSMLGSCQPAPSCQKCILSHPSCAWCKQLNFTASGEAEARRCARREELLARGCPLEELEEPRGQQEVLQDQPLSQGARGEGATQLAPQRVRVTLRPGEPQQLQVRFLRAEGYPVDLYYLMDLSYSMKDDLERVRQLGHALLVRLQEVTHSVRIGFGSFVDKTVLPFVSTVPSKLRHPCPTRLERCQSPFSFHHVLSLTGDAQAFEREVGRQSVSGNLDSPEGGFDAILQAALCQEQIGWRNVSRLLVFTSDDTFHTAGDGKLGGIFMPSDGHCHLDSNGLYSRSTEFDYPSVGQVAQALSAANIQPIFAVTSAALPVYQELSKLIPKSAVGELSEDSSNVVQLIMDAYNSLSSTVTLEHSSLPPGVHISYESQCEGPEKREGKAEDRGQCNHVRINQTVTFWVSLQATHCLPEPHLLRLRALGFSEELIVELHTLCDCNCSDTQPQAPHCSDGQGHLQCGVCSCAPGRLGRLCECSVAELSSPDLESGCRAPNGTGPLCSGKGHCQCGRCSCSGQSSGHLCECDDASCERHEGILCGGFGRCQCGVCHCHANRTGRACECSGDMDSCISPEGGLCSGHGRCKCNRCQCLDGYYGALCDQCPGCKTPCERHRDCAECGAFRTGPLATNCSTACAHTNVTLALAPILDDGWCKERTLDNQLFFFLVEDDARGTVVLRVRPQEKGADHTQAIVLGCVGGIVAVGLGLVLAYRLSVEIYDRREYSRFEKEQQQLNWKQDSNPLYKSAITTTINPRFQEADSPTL

Integrin alpha-4/beta-1 = Integrin alpha-4/beta-1 (Homo sapiens, UniProt P05556+P13612); assay: Inhibition of integrin alpha-4-beta-1-VCAM interaction; format: protein-complex assay
Integrin alpha-5/beta-1 = Integrin alpha-5/beta-1 (Homo sapiens, UniProt P05556+P08648); assay: Inhibition of integrin alpha-5-beta-1-fibronectin interaction; format: protein-complex assay
[1] = Clearance in mouse; format: ADME, organism-based; details: in vivo
[2] = Half life in mouse; format: ADME, organism-based; details: in vivo
[3] = Volume of distribution in mouse; format: ADME, organism-based; details: in vivo
Mus musculus = species: Mus musculus; assay: AUC in mouse; format: ADME, organism-based, Plasma; details: in vivo
[4] = Oral bioavailability in mouse; format: ADME, organism-based; details: in vivo

Chain of Integrin alpha-5/beta-1 (P05556 21-798 limits assumed): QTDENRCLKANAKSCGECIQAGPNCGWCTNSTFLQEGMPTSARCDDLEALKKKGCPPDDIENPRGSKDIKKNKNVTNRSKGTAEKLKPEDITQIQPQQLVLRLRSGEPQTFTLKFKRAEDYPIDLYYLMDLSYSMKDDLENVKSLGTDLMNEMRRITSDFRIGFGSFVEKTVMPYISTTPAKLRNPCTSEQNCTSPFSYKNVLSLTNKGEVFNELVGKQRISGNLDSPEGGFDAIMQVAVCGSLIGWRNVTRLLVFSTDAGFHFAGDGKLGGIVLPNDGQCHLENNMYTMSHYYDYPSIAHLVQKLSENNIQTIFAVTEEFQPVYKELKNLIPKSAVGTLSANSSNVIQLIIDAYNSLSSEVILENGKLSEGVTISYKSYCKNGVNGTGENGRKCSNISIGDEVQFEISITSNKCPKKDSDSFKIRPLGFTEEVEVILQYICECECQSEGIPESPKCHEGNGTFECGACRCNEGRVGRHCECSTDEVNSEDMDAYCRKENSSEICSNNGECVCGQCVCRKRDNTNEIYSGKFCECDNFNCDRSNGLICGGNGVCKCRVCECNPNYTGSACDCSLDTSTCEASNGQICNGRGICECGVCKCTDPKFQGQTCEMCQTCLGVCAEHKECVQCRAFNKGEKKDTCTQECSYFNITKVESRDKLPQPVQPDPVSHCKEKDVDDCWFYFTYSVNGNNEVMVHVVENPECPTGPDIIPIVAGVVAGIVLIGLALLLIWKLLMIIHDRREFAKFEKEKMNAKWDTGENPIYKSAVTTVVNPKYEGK
Chain of Integrin alpha-5/beta-1 (P08648 42-894 limits assumed): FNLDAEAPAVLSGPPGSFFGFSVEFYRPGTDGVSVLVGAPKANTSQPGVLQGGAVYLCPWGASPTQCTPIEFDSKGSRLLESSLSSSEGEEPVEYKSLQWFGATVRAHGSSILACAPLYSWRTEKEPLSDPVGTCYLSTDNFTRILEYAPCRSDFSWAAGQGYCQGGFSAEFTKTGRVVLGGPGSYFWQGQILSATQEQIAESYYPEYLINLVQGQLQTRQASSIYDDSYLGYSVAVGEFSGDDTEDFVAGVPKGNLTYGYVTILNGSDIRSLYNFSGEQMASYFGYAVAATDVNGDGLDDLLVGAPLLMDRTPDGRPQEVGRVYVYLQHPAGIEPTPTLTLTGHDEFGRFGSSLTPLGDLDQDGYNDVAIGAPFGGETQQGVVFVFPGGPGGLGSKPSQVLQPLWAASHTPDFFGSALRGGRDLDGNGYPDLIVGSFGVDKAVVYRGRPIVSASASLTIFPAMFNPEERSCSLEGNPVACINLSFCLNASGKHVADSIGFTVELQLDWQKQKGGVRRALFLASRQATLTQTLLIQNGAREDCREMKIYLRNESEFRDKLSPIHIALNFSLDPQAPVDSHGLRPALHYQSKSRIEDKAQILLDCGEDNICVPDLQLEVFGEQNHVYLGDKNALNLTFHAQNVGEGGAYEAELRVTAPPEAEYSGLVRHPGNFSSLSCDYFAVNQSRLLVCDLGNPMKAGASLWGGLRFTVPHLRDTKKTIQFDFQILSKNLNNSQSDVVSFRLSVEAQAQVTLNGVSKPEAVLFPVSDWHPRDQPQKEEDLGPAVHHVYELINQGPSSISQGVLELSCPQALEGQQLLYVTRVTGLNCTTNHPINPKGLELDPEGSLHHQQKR
Chain of Integrin alpha-5/beta-1 (P08648 895-1049 limits assumed): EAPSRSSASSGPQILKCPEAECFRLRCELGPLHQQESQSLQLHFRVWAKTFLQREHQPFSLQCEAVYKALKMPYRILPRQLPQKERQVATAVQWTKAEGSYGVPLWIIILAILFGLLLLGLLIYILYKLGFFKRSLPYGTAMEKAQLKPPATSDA
Chain of Integrin alpha-4/beta-1 (P05556 whole entry, one chain of several): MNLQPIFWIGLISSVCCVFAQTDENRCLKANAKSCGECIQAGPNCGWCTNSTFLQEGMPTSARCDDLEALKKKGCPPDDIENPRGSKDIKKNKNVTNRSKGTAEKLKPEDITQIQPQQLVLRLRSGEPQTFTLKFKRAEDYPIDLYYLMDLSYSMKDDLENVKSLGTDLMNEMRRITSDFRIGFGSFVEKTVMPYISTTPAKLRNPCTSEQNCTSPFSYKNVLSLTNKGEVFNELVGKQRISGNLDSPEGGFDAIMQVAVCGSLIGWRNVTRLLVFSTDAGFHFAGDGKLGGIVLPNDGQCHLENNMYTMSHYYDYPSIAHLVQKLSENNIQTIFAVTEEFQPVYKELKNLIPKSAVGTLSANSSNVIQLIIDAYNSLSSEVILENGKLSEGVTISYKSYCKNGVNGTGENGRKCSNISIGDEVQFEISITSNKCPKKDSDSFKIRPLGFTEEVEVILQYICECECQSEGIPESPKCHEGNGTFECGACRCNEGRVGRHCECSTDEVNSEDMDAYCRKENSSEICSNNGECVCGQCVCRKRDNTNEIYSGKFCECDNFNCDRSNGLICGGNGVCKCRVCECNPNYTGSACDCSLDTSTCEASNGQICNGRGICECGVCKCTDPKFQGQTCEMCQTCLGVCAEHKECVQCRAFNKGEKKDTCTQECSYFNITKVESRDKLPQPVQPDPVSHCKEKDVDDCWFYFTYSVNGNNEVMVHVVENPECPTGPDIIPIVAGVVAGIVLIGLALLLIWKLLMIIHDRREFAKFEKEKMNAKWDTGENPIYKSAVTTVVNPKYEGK

| Compound | IC50 (Integrin alpha-4/beta-7) [nM] | other results |
| --- | --- | --- |
| O=C1NC(=O)N(c2ccccc2)C(=O)/C1=C\c1ccccc1 | 2200 |  |
| O=C1NC(=O)N(c2ccccc2)C(=O)/C1=C\c1ccc(C(F)(F)F)cc1 | 1300 |  |
| O=C1NC(=O)N(c2ccccc2-c2ccccc2)C(=O)/C1=C\c1c[nH]c2ccccc12 | 260 | IC50 (Integrin alpha-4/beta-1): > 20000 nM; IC50 (Integrin alpha-5/beta-1): > 20000 nM |
| O=C1NC(=O)N(c2ccccc2)C(=O)/C1=C\c1cc2ccccc2[nH]1 | 10000 |  |
| Cn1cc(/C=C2/C(=O)NC(=O)N(c3ccccc3)C2=O)c2ccccc21 | 4100 |  |
| O=C1NC(=O)N(c2ccccc2)C(=O)/C1=C\c1ccco1 | 1300 | IC50 (Integrin alpha-4/beta-1): > 20000 nM; IC50 (Integrin alpha-5/beta-1): > 20000 nM |
| O=C1NC(=O)N(c2cc(Cl)cc(Cl)c2)C(=O)/C1=C\c1ccccc1 | 1600 |  |
| Cn1cc(/C=C2/C(=O)NC(=O)N(c3cccc4ccccc34)C2=O)c2ccccc21 | 180 |  |
| CC(C)(C)N1C(=O)NC(=O)/C(=C/c2c[nH]c3ccccc23)C1=O | > 20000 |  |
| O=C1NC(=O)N(c2cccc3ccccc23)C(=O)/C1=C\c1c[nH]c2ccccc12 | 60 | clearance [1]: 71 mL/min/kg; half-life [2]: 4.1 h; IC50 (Integrin alpha-4/beta-1): > 20000 nM; Vd [3]: 24.8 L/kg; AUC (Mus musculus): 170 mg·min/mL; IC50 (Integrin alpha-5/beta-1): > 20000 nM; bioavailability [4]: 62% |
| O=C1NC(=O)N(c2ccccc2)C(=O)/C1=C\c1c[nH]c2ccccc12 | 900 |  |
| O=C(/C=C1/C(=O)NC(=O)N(c2ccccc2)C1=O)/C=C/c1ccccc1 | 8600 |  |
| O=C1NC(=O)N(c2ccc(Cl)cc2)C(=O)/C1=C\c1ccccc1 | 1000 |  |
| CN1C(=O)/C(=C/c2c[nH]c3ccccc23)C(=O)N(c2cccc3ccccc23)C1=O | 5500 |  |

— ChEMBL document CHEMBL1143882, “Selective cell adhesion inhibitors: Barbituric acid based alpha4beta7--MAdCAM inhibitors” (Bioorg Med Chem Lett, 2008)
